Values of other authors as cited in PMC2912428 (Bioconjugate chemistry, 2010).

Test system: SAv-Y43A
Conditions: SAv-Y43A vs WT SAv ref 21

## O=C(O)CCCC[C@@H]1SC[C@@H]2NC(=O)N[C@@H]21 [biotin, D-biotin]
  lower affinity of SAv-Y43A than wild-type SAv: 67 fold
